Data taken from patent publication US9783527B2, “Indazole ureas and method of use” (AbbVie Inc., priority 2014, dated 2017).

How the values were obtained:
human Nav1.7 = human Nav1.7 (Homo sapiens (Human), UniProt Q15858); experiment: FRET-based membrane potential assay, recombinant human sodium channel Nav1.7; format: cell-based; details: HEK293 cells stably expressing recombinant human Nav1.7; depolarization with veratridine (EC80) + scorpion venom
In short: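 IC50 derived by four-parameter Hill fit of percent inhibition of depolarization, measured as peak F440-480/F565-625 ratio over baseline. Stable human Nav1.7 HEK293 cells, dye-loaded with CC2-DMPE and DiSBAC2(3)/VABSC-1 at room temperature, received compound 3 min ahead of veratridine (EC80) plus scorpion venom.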

human Nav1.8 = human Nav1.8 (Homo sapiens (Human), UniProt Q9Y5Y9); experiment: FRET-based membrane potential assay, recombinant human sodium channel Nav1.8; format: cell-based; details: HEK293 cells stably expressing recombinant human Nav1.8; depolarization with veratridine (EC80) + scorpion venom
Chain of human Nav1.8 (Q9Y5Y9 whole entry): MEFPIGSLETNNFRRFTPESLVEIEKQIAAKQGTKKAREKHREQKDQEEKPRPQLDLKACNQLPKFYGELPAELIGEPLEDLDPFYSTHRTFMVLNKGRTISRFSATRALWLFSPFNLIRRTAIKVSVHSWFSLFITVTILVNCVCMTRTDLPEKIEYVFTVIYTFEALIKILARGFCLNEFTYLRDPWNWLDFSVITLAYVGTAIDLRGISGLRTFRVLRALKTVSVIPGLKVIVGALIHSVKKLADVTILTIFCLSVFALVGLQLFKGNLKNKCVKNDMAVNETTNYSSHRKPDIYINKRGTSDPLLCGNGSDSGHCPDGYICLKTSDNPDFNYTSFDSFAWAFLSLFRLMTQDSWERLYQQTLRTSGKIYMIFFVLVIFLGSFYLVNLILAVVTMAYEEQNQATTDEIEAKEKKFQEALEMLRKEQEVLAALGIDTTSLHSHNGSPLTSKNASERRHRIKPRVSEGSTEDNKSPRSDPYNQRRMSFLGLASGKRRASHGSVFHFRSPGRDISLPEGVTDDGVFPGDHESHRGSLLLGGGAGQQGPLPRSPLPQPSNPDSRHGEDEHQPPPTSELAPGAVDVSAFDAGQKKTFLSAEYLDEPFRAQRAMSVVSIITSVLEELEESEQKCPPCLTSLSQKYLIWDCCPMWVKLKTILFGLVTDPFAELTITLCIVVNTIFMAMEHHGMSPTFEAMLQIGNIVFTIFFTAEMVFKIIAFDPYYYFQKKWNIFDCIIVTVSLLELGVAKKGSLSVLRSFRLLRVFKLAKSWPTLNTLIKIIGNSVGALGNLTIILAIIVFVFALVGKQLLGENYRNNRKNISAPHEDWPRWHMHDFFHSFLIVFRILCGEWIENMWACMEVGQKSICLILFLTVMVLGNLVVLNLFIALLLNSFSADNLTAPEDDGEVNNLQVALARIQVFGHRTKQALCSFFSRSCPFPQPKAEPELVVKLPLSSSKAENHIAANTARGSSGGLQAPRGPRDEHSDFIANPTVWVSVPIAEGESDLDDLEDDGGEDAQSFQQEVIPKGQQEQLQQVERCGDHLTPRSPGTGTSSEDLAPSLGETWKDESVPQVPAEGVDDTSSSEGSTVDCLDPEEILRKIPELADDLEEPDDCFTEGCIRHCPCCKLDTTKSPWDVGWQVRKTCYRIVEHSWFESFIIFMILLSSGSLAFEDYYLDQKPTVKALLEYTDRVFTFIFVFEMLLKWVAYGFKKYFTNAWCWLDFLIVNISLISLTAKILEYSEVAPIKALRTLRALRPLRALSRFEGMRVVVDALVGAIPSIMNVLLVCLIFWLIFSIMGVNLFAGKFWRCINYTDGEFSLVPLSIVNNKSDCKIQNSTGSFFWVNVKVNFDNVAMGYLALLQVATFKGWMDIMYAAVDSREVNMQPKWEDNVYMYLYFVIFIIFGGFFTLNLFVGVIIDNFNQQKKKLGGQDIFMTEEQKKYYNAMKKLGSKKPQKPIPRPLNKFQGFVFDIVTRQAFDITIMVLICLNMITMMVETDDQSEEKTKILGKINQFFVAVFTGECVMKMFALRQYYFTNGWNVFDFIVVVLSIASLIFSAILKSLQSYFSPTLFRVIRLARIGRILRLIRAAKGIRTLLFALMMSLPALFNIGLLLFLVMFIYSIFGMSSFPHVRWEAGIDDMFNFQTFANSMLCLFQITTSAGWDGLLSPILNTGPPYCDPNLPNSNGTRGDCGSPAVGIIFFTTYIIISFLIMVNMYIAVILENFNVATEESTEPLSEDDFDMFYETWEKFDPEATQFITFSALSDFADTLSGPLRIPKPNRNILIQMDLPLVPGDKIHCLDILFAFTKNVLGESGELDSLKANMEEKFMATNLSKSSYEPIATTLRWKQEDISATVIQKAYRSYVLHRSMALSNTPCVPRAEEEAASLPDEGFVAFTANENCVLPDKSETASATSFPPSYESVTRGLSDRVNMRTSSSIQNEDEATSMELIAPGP
In short: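 HEK293 cells stably expressing Nav1.8 were loaded with CC2-DMPE/DiSBAC2(3) FRET voltage dyes. Compounds were added 3 min before depolarization with EC80 veratridine plus scorpion venom. The F440-480/F565-625 ratio was read on FLIPR; IC50 came from four-parameter Hill fits.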

Chain of human Nav1.7 (Q15858 whole entry): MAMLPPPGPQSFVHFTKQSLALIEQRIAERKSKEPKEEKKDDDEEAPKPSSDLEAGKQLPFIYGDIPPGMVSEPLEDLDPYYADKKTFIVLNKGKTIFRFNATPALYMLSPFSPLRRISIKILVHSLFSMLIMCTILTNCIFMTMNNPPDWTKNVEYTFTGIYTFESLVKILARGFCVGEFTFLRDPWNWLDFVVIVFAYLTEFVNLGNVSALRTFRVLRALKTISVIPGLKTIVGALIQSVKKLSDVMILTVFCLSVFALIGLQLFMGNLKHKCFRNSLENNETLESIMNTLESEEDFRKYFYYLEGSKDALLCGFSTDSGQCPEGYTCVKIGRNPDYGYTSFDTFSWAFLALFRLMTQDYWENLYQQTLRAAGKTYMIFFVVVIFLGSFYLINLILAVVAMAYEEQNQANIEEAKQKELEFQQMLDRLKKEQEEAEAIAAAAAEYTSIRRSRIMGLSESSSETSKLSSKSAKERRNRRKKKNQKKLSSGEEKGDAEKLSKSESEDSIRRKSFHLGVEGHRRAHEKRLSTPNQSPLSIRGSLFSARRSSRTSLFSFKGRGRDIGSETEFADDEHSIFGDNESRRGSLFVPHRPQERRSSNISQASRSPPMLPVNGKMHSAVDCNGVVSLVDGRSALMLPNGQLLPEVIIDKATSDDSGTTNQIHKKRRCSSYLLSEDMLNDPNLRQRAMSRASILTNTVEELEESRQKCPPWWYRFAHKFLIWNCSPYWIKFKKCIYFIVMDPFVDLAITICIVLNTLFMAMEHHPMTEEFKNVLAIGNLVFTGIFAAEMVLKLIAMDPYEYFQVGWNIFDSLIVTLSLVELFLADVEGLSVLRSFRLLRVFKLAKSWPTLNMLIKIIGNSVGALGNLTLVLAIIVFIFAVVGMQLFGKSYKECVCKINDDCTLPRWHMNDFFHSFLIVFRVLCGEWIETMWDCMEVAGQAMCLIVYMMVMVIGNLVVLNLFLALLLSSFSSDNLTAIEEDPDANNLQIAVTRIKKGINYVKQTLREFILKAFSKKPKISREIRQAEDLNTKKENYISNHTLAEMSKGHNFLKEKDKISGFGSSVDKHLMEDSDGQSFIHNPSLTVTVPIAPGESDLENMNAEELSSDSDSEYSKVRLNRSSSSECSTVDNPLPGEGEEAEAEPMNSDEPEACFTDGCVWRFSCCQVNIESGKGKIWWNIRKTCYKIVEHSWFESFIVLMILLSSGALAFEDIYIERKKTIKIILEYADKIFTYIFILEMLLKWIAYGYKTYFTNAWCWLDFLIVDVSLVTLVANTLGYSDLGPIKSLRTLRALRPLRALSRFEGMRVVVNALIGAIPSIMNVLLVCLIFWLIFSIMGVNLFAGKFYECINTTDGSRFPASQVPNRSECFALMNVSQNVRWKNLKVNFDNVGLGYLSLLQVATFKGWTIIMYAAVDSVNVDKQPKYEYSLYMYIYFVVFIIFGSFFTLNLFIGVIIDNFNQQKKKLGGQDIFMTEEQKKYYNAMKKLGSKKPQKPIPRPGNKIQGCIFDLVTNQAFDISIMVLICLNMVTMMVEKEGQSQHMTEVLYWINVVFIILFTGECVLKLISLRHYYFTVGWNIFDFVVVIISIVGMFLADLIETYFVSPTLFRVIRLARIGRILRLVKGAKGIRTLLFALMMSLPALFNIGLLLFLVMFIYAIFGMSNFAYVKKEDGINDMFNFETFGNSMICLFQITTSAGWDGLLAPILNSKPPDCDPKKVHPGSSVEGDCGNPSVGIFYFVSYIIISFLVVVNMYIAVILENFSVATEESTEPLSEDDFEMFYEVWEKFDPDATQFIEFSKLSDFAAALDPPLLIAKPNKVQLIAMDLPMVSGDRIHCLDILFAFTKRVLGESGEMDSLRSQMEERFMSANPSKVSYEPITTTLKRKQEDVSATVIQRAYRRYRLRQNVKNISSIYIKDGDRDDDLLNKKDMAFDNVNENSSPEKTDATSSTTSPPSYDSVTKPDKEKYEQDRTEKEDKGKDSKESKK

O=C(CN1CCN(c2cccc3c2cnn3-c2ccccc2F)C1=O)NC1CCCC1(F)F (stereo not drawn) [Example 347, N-(2,2-difluorocyclopentyl)-2-{3-[1-(2-fluorophenyl)-1H-indazol-4-yl]-2-oxoimidazolidin-1-yl}acetamide] was tested, and the IC50 (human Nav1.7) was 3450 nM and the IC50 (human Nav1.8) was 1290 nM.

With CN(C(=O)CN1CCN(c2cccc3c2cnn3-c2ccccc2F)C1=O)C1CCC1 [Example 351, N-cyclobutyl-2-{3-[1-(2-fluorophenyl)-1H-indazol-4-yl]-2-oxoimidazolidin-1-yl}-N-methylacetamide] the IC50 (human Nav1.7) was 3480 nM and the IC50 (human Nav1.8) was 1850 nM.

Work on O=C(CN1CCN(c2cccc3c2cnn3-c2ccccc2F)C1=O)N1CCCC(F)(F)C1 [Example 296, 1-[2-(3,3-difluoropiperidin-1-yl)-2-oxoethyl]-3-[1-(2-fluorophenyl)-1H-indazol-4-yl]imidazolidin-2-one] yielded an IC50 (human Nav1.7) of 3180 nM and an IC50 (human Nav1.8) of 1310 nM.

O=C(CN1CCN(c2cccc3c2cnn3-c2ccc(Cl)cc2)C1=O)N1CC[C@H](F)C1 [Example 338, 1-[1-(4-chlorophenyl)-1H-indazol-4-yl]-3-{2-[(3S)-3-fluoropyrrolidin-1-yl]-2-oxoethyl}imidazolidin-2-one] showed an IC50 (human Nav1.7) of 1060 nM and an IC50 (human Nav1.8) of 2620 nM.

For O=C(CN1CCN(c2cccc3c2cnn3-c2ccccc2F)C1=O)N1CC(O)C1 [Example 291, 1-[1-(2-fluorophenyl)-1H-indazol-4-yl]-3-[2-(3-hydroxyazetidin-1-yl)-2-oxoethyl]imidazolidin-2-one], the IC50 (human Nav1.7) was 5900 nM and the IC50 (human Nav1.8) was 13100 nM.

With O=C(CN1CCN(c2cccc3c2cnn3-c2ccccc2F)C1=O)NCCC(F)(F)F [Example 343, 2-{3-[1-(2-fluorophenyl)-1H-indazol-4-yl]-2-oxoimidazolidin-1-yl}-N-(3,3,3-trifluoropropyl)acetamide] the IC50 (human Nav1.7) was 3060 nM and the IC50 (human Nav1.8) was 1270 nM.

In the case of CC1CN(C(=O)CN2CCN(c3cccc4c3cnn4-c3ccccc3F)C2=O)C1 [Example 352, 1-[1-(2-fluorophenyl)-1H-indazol-4-yl]-3-[2-(3-methylazetidin-1-yl)-2-oxoethyl]imidazolidin-2-one], the IC50 (human Nav1.7) is reported as 1510 nM and the IC50 (human Nav1.8) is reported as 2580 nM.

O=C1CCCC[C@@H]1N1CCN(c2cccc3c2cnn3-c2ccccc2F)C1=O [Example 281, 1-[1-(2-fluorophenyl)-1H-indazol-4-yl]-3-[(1S)-2-oxocyclohexyl]imidazolidin-2-one] showed an IC50 (human Nav1.7) of 11600 nM and an IC50 (human Nav1.8) of 12400 nM.

CCN(CC)C(=O)CN1CCN(c2cccc3c2cnn3-c2ccccc2F)C1=O [Example 93, N,N-diethyl-2-{3-[1-(2-fluorophenyl)-1H-indazol-4-yl]-2-oxoimidazolidin-1-yl}acetamide] was tested, and the IC50 (human Nav1.7) was 10700 nM and the IC50 (human Nav1.8) was 5180 nM.

O=C(CN1CCN(c2cccc3c2cnn3-c2ccccc2F)C1=O)N1CCCCC1 [Example 295, 1-[1-(2-fluorophenyl)-1H-indazol-4-yl]-3-[2-oxo-2-(piperidin-1-yl)ethyl]imidazolidin-2-one] was tested, and the IC50 (human Nav1.7) was 2510 nM and the IC50 (human Nav1.8) was 1790 nM.

In the case of O=C1N(c2cccc3c2cnn3-c2ccccc2F)CCN1C1CN(S(=O)(=O)CC2CC2)C1 [Example 283, 1-{1-[(cyclopropylmethyl)sulfonyl]azetidin-3-yl}-3-[1-(2-fluorophenyl)-1H-indazol-4-yl]imidazolidin-2-one], the IC50 (human Nav1.7) is reported as 2550 nM and the IC50 (human Nav1.8) is reported as 2210 nM.

CO[C@H]1CCCC[C@@H]1N1CCN(c2cccc3c2cnn3-c2ccccc2F)C1=O [Example 279, 1-[1-(2-fluorophenyl)-1H-indazol-4-yl]-3-[(1S,2S)-2-methoxycyclohexyl]imidazolidin-2-one] gave an IC50 (human Nav1.7) of 1860 nM and an IC50 (human Nav1.8) of 5640 nM.

O=C(CN1CCN(c2cccc3c2cnn3-c2ccccc2F)C1=O)NC1CCCC1 [Example 323, N-cyclopentyl-2-{3-[1-(2-fluorophenyl)-1H-indazol-4-yl]-2-oxoimidazolidin-1-yl}acetamide] showed an IC50 (human Nav1.7) of 1460 nM and an IC50 (human Nav1.8) of 695 nM.

CC(C)COC(=O)N1CCN(c2cccc3c2cnn3-c2ccccc2F)C1=O [Example 5, isobutyl 3-[1-(2-fluorophenyl)-1H-indazol-4-yl]-2-oxoimidazolidine-1-carboxylate] was tested, and the IC50 (human Nav1.7) was 166 nM and the IC50 (human Nav1.8) was 57.2 nM.

Work on O=C1CC(NC(=O)CN2CCN(c3cccc4c3cnn4-c3ccccc3F)C2=O)C1 [Example 349, 2-{3-[1-(2-fluorophenyl)-1H-indazol-4-yl]-2-oxoimidazolidin-1-yl}-N-(3-oxocyclobutyl)acetamide] yielded an IC50 (human Nav1.7) of 15100 nM and an IC50 (human Nav1.8) of 7570 nM.

For CC(C)[C@H](NC(=O)CN1CCN(c2cccc3c2cnn3-c2ccccc2F)C1=O)C(=O)NC(C)(C)C [Example 346, N-tert-butyl-N^2-({3-[1-(2-fluorophenyl)-1H-indazol-4-yl]-2-oxoimidazolidin-1-yl}acetyl)-L-valinamide], the IC50 (human Nav1.7) was 2040 nM and the IC50 (human Nav1.8) was 960 nM.

In the case of O=C(CCN1CCN(c2cccc3c2cnn3-c2ccccc2F)C1=O)N1CCC[C@H](F)C1 [Example 318, 1-[1-(2-fluorophenyl)-1H-indazol-4-yl]-3-{3-[(3S)-3-fluoropiperidin-1-yl]-3-oxopropyl}imidazolidin-2-one], the IC50 (human Nav1.7) is reported as 3140 nM and the IC50 (human Nav1.8) is reported as 3470 nM.

CC(C)(C)CCn1ncc2c(N3CCN(CC(=O)N4CCCC4)C3=O)cccc21 [Example 305, 1-[1-(3,3-dimethylbutyl)-1H-indazol-4-yl]-3-[2-oxo-2-(pyrrolidin-1-yl)ethyl]imidazolidin-2-one] showed an IC50 (human Nav1.7) of 3670 nM and an IC50 (human Nav1.8) of 3330 nM.

With NC(=O)[C@@H](Cc1ccccc1)NC(=O)CN1CCN(c2cccc3c2cnn3-c2ccccc2F)C1=O [Example 345, Nα-({3-[1-(2-fluorophenyl)-1H-indazol-4-yl]-2-oxoimidazolidin-1-yl}acetyl)-D-phenylalaninamide] the IC50 (human Nav1.7) was 6060 nM and the IC50 (human Nav1.8) was 1780 nM.

In the case of O=C(/C=C/N1CCN(c2cccc3c2cnn3-c2ccccc2F)C1=O)N1CC[C@H](F)C1 [Example 327, 1-[1-(2-fluorophenyl)-1H-indazol-4-yl]-3-{(1E)-3-[(3S)-3-fluoropyrrolidin-1-yl]-3-oxoprop-1-en-1-yl}imidazolidin-2-one], the IC50 (human Nav1.7) is reported as 2890 nM and the IC50 (human Nav1.8) is reported as 678 nM.

For CC(C)O[C@H]1CCCC[C@@H]1N1CCN(c2cccc3c2cnn3-c2ccccc2F)C1=O [Example 331, 1-[1-(2-fluorophenyl)-1H-indazol-4-yl]-3-[(1S,2S)-2-isopropoxycyclohexyl]imidazolidin-2-one], the IC50 (human Nav1.7) was 1440 nM and the IC50 (human Nav1.8) was 3650 nM.

O=C(CN1CCN(c2cccc3c2cnn3-c2ccccc2F)C1=O)NC1CCCC(F)(F)C1 (stereo not drawn) [Example 340, N-(3,3-difluorocyclohexyl)-2-{3-[1-(2-fluorophenyl)-1H-indazol-4-yl]-2-oxoimidazolidin-1-yl}acetamide] was tested, and the IC50 (human Nav1.7) was 2640 nM and the IC50 (human Nav1.8) was 637 nM.

For O=C(CN1CCN(c2cccc3c2cnn3-c2ccccc2F)C1=O)N1CC2(COC2)C1 [Example 100, 1-[1-(2-fluorophenyl)-1H-indazol-4-yl]-3-[2-(2-oxa-6-azaspiro[3.3]hept-6-yl)-2-oxoethyl]imidazolidin-2-one], the IC50 (human Nav1.7) was 5010 nM and the IC50 (human Nav1.8) was 20000 nM.

With O=C(CN1CCN(c2cccc3c2cnn3-c2ccccc2F)C1=O)NC1CCC(F)(F)C1 (stereo not drawn) [Example 341, N-(3,3-difluorocyclopentyl)-2-{3-[1-(2-fluorophenyl)-1H-indazol-4-yl]-2-oxoimidazolidin-1-yl}acetamide] the IC50 (human Nav1.7) was 2900 nM and the IC50 (human Nav1.8) was 991 nM.
